The values below are quoted from earlier work in patent publication US20220054371A1, “TOOTH CLEANING COMPOSITION, TOOTH CLEANING AGENT, DENTAL CALCULUS REMOVAL ACCELERATOR, AND TOOTH CLEANING METHOD” (TOKUYAMA DENTAL CORPORATION, priority 2018, published 2022).

The conditions of the data set: 2.0 mg dental calculi in 1 ml of 10% aqueous solution, pH 3.1, 14 minutes.

Regarding `CC(O)C(=O)O` (stereo not shown) [lactic acid], the “weight reduction of dental calculi” value is given as 1.0 mg.
